Data from paper PMC6576746, “Rational discovery of dual-indication multi-target PDE/Kinase inhibitor for precision anti-cancer therapy using structural systems pharmacology” (PLoS Computational Biology, 2019).

Legend:
Assay in all cases: cells
Set-up in all cases: species or system panel of human cancer cell lines; Eurofins OncoPanel proliferation; nuclei count by high-content fluorescence imaging, 10-point dose response
BM-1604 = conditions: BM-1604, 72 h, cell count, 3 days
How it was run: (§1)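 Cells in RPMI 1640/10% FBS or special medium received compound the day after seeding, with a time-zero plate; 3-day incubation at 37°C, 5% CO2. Nuclei imaged by fluorescence microscopy; 10 half-log doses from 100 μM, 0.1% DMSO. EC50, IC50, GI50 and activity area (0–10) from curve fits.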

CEM-C1 = conditions: CEM/C1, 72 h, cell count, 3 days
How it was run: as §1

Calu6 = conditions: Homo sapiens, Calu-6, 72 h, cell count, 3 days
How it was run: as §1

HPAF-II = conditions: Homo sapiens, HPAF-II, 72 h, cell count, 3 days
How it was run: as §1

Hs 578T = conditions: Homo sapiens, Hs-578T, 72 h, cell count, 3 days
How it was run: as §1

MHH-PREB-1 = conditions: Homo sapiens, MHH-PREB-1, 72 h, cell count, 3 days
How it was run: as §1

NCI-H508 = conditions: Homo sapiens, NCI-H508, 72 h, cell count, 3 days
How it was run: as §1

PANC-1 = conditions: Homo sapiens, PANC-1, 72 h, cell count, 3 days
How it was run: as §1

RL95-2 = conditions: Homo sapiens, RL95-2, 72 h, cell count, 3 days
How it was run: as §1

SJRH30 = conditions: Homo sapiens, SJRH30, 72 h, cell count, 3 days
How it was run: as §1

SW900 = conditions: Homo sapiens, SW900, 72 h, cell count, 3 days
How it was run: as §1

TF-1 = conditions: Homo sapiens, TF-1, 72 h, cell count, 3 days
How it was run: as §1

TUR = conditions: 72 h, cell count, 3 days
How it was run: as §1

U266B1 = conditions: 72 h, cell count, 3 days
How it was run: as §1

[1] = 50% of maximum possible response

Question: Which results are given for `C[C@@H]1CC(=O)NN=C1c1ccc(NN=C(C#N)C#N)cc1` [levosimendan]?
Answer: IC50 (BM-1604; [1]): 12.6 µM; GI50 (BM-1604; corrected for time zero): 7.44 µM; EC50 (BM-1604; curve inflection point): 12.6 µM; IC50 (CEM-C1; [1]): 22.5 µM; GI50 (CEM-C1; corrected for time zero): 18.8 µM; EC50 (CEM-C1; curve inflection point): 22.5 µM; IC50 (Calu6; [1]): > 100 µM; GI50 (Calu6; corrected for time zero): 91.5 µM; EC50 (Calu6; curve inflection point): > 100 µM; IC50 (HPAF-II; [1]): 65.8 µM; GI50 (HPAF-II; corrected for time zero): 54 µM; EC50 (HPAF-II; curve inflection point): 65.8 µM; IC50 (Hs 578T; [1]): > 100 µM; GI50 (Hs 578T; corrected for time zero): > 100 µM; EC50 (Hs 578T; curve inflection point): 48 µM; IC50 (MHH-PREB-1; [1]): 7.64 µM; GI50 (MHH-PREB-1; corrected for time zero): 7.08 µM; EC50 (MHH-PREB-1; curve inflection point): 7.4 µM; IC50 (NCI-H508; [1]): 38.4 µM; GI50 (NCI-H508; corrected for time zero): 33.5 µM; EC50 (NCI-H508; curve inflection point): 38.4 µM; IC50 (PANC-1; [1]): 80.9 µM; GI50 (PANC-1; corrected for time zero): 47 µM; EC50 (PANC-1; curve inflection point): 80.9 µM; IC50 (RL95-2; [1]): 21.1 µM; GI50 (RL95-2; corrected for time zero): 10.4 µM; EC50 (RL95-2; curve inflection point): 19 µM; IC50 (SJRH30; [1]): 11.4 µM; GI50 (SJRH30; corrected for time zero): 7.7 µM; EC50 (SJRH30; curve inflection point): 9.67 µM; IC50 (SW900; [1]): 67.6 µM; GI50 (SW900; corrected for time zero): 35.9 µM; EC50 (SW900; curve inflection point): 67.6 µM; IC50 (TF-1; [1]): 41.7 µM; GI50 (TF-1; corrected for time zero): 19.7 µM; EC50 (TF-1; curve inflection point): 41.7 µM; IC50 (TUR; [1]): 6.72 µM; GI50 (TUR; corrected for time zero): 5.98 µM; EC50 (TUR; curve inflection point): 6.49 µM; IC50 (U266B1; [1]): 95.7 µM; GI50 (U266B1; corrected for time zero): 46.2 µM; EC50 (U266B1; curve inflection point): 95.7 µM
